Square brackets hold non-standard residues; d marks the D form. Peptide text beside a SMILES is read from it.
Target: T1, alpha-ENaC (Homo sapiens, UniProt P37088+P51168+P51170)
T1 construct: expressed in transfected cells; host or cells: HEK293T
T1 sequence (P37088 1-669): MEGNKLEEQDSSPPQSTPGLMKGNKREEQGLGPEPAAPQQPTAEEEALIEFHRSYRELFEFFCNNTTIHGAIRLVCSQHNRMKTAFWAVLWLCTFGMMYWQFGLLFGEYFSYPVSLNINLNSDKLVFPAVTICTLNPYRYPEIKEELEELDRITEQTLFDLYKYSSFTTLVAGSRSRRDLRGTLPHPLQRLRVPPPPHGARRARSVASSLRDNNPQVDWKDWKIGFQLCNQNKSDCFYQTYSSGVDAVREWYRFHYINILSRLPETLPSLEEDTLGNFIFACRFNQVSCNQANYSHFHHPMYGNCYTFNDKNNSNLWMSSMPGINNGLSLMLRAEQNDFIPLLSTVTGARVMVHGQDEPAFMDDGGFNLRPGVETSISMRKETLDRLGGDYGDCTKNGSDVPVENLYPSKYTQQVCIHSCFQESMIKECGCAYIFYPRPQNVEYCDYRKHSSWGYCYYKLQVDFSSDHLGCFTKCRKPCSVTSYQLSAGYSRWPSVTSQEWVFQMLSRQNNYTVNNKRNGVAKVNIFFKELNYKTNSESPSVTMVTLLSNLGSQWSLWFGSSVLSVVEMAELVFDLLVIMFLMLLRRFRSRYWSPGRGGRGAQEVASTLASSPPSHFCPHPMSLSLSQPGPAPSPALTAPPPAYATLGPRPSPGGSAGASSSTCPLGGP
T1 sequence (P51168 1-640): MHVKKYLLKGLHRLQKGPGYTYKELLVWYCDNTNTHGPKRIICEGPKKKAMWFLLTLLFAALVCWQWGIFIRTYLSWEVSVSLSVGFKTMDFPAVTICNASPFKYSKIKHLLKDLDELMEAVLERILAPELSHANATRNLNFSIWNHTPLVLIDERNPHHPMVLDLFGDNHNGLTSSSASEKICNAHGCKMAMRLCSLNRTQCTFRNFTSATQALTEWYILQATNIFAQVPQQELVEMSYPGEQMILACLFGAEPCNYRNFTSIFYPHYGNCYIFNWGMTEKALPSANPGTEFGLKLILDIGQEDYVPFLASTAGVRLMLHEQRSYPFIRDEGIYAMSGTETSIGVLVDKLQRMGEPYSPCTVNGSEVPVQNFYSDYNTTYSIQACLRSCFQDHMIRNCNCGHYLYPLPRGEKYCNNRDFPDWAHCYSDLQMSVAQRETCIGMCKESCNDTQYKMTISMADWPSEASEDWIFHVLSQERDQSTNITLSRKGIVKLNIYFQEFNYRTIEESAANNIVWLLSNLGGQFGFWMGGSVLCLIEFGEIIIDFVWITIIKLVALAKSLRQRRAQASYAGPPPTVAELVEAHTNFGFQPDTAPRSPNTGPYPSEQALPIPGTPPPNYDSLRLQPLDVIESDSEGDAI
T1 sequence (P51170 1-649): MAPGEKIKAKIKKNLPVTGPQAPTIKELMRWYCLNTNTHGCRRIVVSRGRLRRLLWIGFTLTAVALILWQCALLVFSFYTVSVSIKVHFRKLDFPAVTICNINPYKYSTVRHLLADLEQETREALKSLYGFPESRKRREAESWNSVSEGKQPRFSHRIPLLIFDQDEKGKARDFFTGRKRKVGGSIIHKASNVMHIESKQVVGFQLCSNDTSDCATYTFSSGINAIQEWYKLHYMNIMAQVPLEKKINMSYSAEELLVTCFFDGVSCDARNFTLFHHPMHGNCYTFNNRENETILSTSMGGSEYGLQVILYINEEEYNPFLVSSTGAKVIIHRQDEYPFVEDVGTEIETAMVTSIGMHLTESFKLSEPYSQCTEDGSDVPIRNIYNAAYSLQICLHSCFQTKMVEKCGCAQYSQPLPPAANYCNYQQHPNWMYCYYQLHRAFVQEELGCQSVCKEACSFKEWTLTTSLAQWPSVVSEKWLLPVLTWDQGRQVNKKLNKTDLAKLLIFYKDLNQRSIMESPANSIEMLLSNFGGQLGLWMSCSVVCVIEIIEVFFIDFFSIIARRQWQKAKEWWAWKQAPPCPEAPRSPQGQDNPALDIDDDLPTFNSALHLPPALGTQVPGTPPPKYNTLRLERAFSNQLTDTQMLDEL
Assay: Internalization of alpha-ENaC in HEK293T cells, GFP-tagged alpha-ENaC co-expressed with beta and gamma ENaC
Assay type: cell-based
Settings: beta-ENaC co-expressed, FIGS. 5A-5U
Description: HEK293T cells were transfected with gfp-αENaC where gfp was fused at the N-terminus of ENaC and unlabeled βENaC and γENaC using lipofectamine in 384 well plates as per the manufacturer's instructions and as published previously (see, e.g., Hobbs et al. Am J Physiol Lung Cell Mol Physiol. 2013 December; 305(12):L990-L1001. doi: 10.1152/ajplung.00103.2013. Epub 2013 October; Garland et al. Proc Natl Acad Sci USA. 2013 Oct. 1; 110(40):15973-8. doi: 10.1073/pnas.1311999110. Epub 2013 Sep. 16.; Tan et al. J Physiol. 2014 Dec. 1; 592(Pt 23):5251-68). Twenty-four hours later, peptide or vehicle control were added at t=0 and fluorescence was read using a Tecan M1000 plate reader 3 h later. Fluorescence was read at 488 nm (excitation)/510 nm (emission).

## CC[C@H](C)[C@H](NC(=O)[C@@H]1CCCN1C(=O)[C@H](CC(C)C)NC(=O)[C@@H](C)NC(=O)[C@@H](C)N)C(=O)N1CCC[C@H]1C(=O)N[C@@H](CC(C)C)C(=O)N[C@@H](CC(=O)O)C(=O)N[C@@H](CCC(N)=O)C(=O)N[C@H](C(=O)N[C@H](C)C(=O)N[C@H](C)C(N)=O)[C@@H](C)O [SEQ ID NO:128, aaLPIPLDQTaa] (H-[dA][dA]LPIPLDQT[dA][dA]-NH2)
  reduction of alpha-ENaC / functional receptor on the cell surface: effective in reducing alpha-ENaC
